The results in this text go back to publication PMC9460261, “Need for a Standardized Translational Drug Development Platform: Lessons Learned from the Repurposing of Drugs for COVID-19” (Microorganisms, 2022).

Structures can show the parent of a compound that is named as a salt. Where two headings read alike, the source gives them in different places.

The subject of data set [1] is SARS-CoV-2 in A549-Dual hACE2-TMPRSS2 cells. The following applies: for EC50: read-out: A549-Dual hACE2-TMPRSS2 cells Average EC50.
For data set [2], the system named is SARS-CoV-2 in Human Airway Epithelia (HAE).
Data set [3] relates to SARS-CoV-2 in A549-Dual hACE2-TMPRSS2 cells. Kind of data set: microbe, parasite or virus in culture. The note with it: Severe acute respiratory syndrome coronavirus 2, read-out: A549-Dual hACE2-TMPRSS2 cells Average EC50.

Broadly, the EC50 is the concentration that produces a half-maximal response.

On to `CCCN(CCC)S(=O)(=O)c1ccc(C(=O)O)cc1` [Probenecid, probenecid], for which the “Activity In Vitro; Potency EC50 or IC50 < 10 µM; A549 Cells” value (“Activity In Vitro” below) in data set [1] is on record as “No (Potency EC50 or IC50 < 10 µM)”. Moreover, in data set [2], the “Activity Ex Vivo Human Airway Epithelia (HAE)” value is “No”. For the same compound, the EC50 in data set [3] is greater than 50 µM.

`O=C(Nc1ncc([N+](=O)[O-])s1)c1ccccc1O` [Tizoxanide, tizoxanide]: the EC50 in data set [3] is greater than 100 µM.

Regarding `NC(=O)c1nc(F)c[nH]c1=O` [Favipiravir, favipiravir], the “Activity In Vitro” value in data set [1] is “No (Potency EC50 or IC50 < 10 µM)”. The “Activity Ex Vivo Human Airway Epithelia (HAE)” value in data set [2] was “No”. Further, the EC50 in data set [3] was greater than 100 µM.

`CC1(C)C(=O)N(c2ccc(C#N)c(C(F)(F)F)c2F)C(=S)N1c1ccc(CCCc2ncco2)nc1` [Proxalutamide, proxalutamide]: in data set [1], the “Activity In Vitro” value is “No (Potency EC50 or IC50 < 10 µM)” and the 50% effective concentration (EC50) was greater than 50 µM. Besides, the “Activity Ex Vivo Human Airway Epithelia (HAE)” value in data set [2] is given as “No”.

In the case of ivermectin, in data set [1], the “A549-Dual hACE2-TMPRSS2 cells Average EC50” value is listed as “+NA” and the “Activity In Vitro” value was “Yes (Potency EC50 or IC50 < 10 µM)”. Moreover, the “Activity Ex Vivo Human Airway Epithelia (HAE)” value in data set [2] is on record as “Yes”.

For the compound `CC(C)/N=c1\cc2n(-c3ccc(Cl)cc3)c3ccccc3nc-2cc1Nc1ccc(Cl)cc1` [Clofazimine, clofazimine], in data set [1], the “Activity In Vitro” value was “Yes (Potency EC50 or IC50 < 10 µM)” and the “Toxicity observed (^T), A549 Cells” value is recorded as “Yes ^T”. The “Activity Ex Vivo Human Airway Epithelia (HAE)” value in data set [2] was “No”. Further, the EC50 in data set [3] was found to be 2.4 µM.

Take `COCCCC/C(=N\OCCN)c1ccc(C(F)(F)F)cc1` [Fluvoxamine maleate, fluvoxamine maleate]: in data set [1], the “Activity In Vitro” value was “No (key: Yes: Potency EC50 or IC50 < 10 µM; No: Potency EC50 or IC50 < 10 µM)”. In addition, the “Activity Ex Vivo Human Airway Epithelia (HAE)” value in data set [2] was “No”. Also, the EC50 in data set [3] is 39.9 µM.

For the compound `CNCCC(Oc1ccc(C(F)(F)F)cc1)c1ccccc1` (stereo not drawn) [Fluoxetine, fluoxetine], in data set [1], the “Activity In Vitro” value is listed as “No (key: Yes: Potency EC50 or IC50 < 10 µM; No: Potency EC50 or IC50 < 10 µM)”. The “Activity Ex Vivo Human Airway Epithelia (HAE)” value in data set [2] is listed as “No”.

With `CCN(CC)Cc1cc(Nc2ccnc3cc(Cl)ccc23)ccc1O` [Amodiaquine, amodiaquine], the “Activity In Vitro” value in data set [1] is “No (Potency EC50 or IC50 < 10 µM)”. For the same compound, the “Activity Ex Vivo Human Airway Epithelia (HAE)” value in data set [2] is reported as “No”. The EC50 in data set [3] was greater than 50 µM.

Consider `CC(=O)Oc1ccccc1C(=O)Nc1ncc([N+](=O)[O-])s1` [Nitazoxanide, nitazoxanide], for which the “Activity In Vitro” value in data set [1] is “No (Potency EC50 or IC50 < 10 µM)”. Moreover, the “Concentration showing activity / complete inhibition of viral replication in HAE” value in data set [2] is reported as 5 µM. Also, the EC50 in data set [3] is greater than 100 µM.

Turning to `CC(C)(C)[C@H](NC(=O)C(F)(F)F)C(=O)N1C[C@H]2[C@@H]([C@H]1C(=O)N[C@H](C#N)C[C@@H]1CCNC1=O)C2(C)C` [Nirmatrelvir, nirmatrelvir], the “Activity In Vitro” value in data set [1] is on record as “Yes (Potency EC50 or IC50 < 10 µM)”. Besides, in data set [2], the “Activity Ex Vivo Human Airway Epithelia (HAE)” value is reported as “Yes” and the “Concentration showing activity / complete inhibition of viral replication in HAE” value is given as 1 µM.

In the case of `COC(=O)N[C@H](C(=O)N1CCC[C@H]1c1nc(-c2ccc(-c3ccc(-c4c[nH]c([C@@H]5CCCN5C(=O)[C@@H](NC(=O)OC)C(C)C)n4)cc3)cc2)c[nH]1)C(C)C` [Daclatasvir, daclatasvir], in data set [1], the “Activity In Vitro” value is “No (Potency EC50 or IC50 < 10 µM)”. The “Activity Ex Vivo Human Airway Epithelia (HAE)” value in data set [2] was “No”. The EC50 in data set [3] is greater than 50 µM.

For the compound `O=c1nc(NO)ccn1[C@@H]1O[C@H](CO)[C@@H](O)[C@H]1O` [EIDD-1931], the EC50 in data set [1] came out at 0.47 µM.

With `Cc1c(O)cccc1C(=O)N[C@@H](CSc1ccccc1)[C@H](O)CN1C[C@H]2CCCC[C@H]2C[C@H]1C(=O)NC(C)(C)C` [Nelfinavir, nelfinavir], in data set [1], the “Activity In Vitro” value is reported as “Yes (Potency EC50 or IC50 < 10 µM)” and the “Toxicity observed (^T), A549 Cells” value is “Yes ^T”. Also, in data set [2], the “Activity Ex Vivo Human Airway Epithelia (HAE)” value was “Yes” and the “Concentration showing activity / complete inhibition of viral replication in HAE” value is 10 µM. The 50% effective concentration (EC50) in data set [3] came to 3.2 µM.

Consider `COc1cc2c(c(OC)c1OC)-c1ccc(OC)c(=O)cc1[C@@H](NC(C)=O)CC2` [Colchicine, colchicine], for which, in data set [1], the “Activity In Vitro” value is given as “Yes ^T (key: Yes: Potency EC50 or IC50 < 10 µM; No: Potency EC50 or IC50 < 10 µM)”. Besides, the “Activity Ex Vivo Human Airway Epithelia (HAE)” value in data set [2] is “No”.

For the compound `CN(C)C(=O)COC(=O)Cc1ccc(OC(=O)c2ccc(NC(=N)N)cc2)cc1` [Camostat mesylate, camostat mesylate], the “Activity In Vitro” value in data set [1] was “No (Potency EC50 or IC50 < 10 µM)”. Also, in data set [2], the “Activity Ex Vivo Human Airway Epithelia (HAE)” value is recorded as “Yes” and the “Concentration showing activity / complete inhibition of viral replication in HAE” value worked out at 10 µM. In data set [3], the EC50 is greater than 50 µM.

Turning to `COC(=O)N[C@H](C(=O)N[C@@H](Cc1ccccc1)[C@@H](O)CN(Cc1ccc(-c2ccccn2)cc1)NC(=O)[C@@H](NC(=O)OC)C(C)(C)C)C(C)(C)C` [Atazanavir, atazanavir], the EC50 in data set [3] was 24 µM.

`CC(C)OC(=O)[C@H](C)N[P@](=O)(OC[C@H]1O[C@@H](n2ccc(=O)[nH]c2=O)[C@](C)(F)[C@@H]1O)Oc1ccccc1` [Sofosbuvir, sofosbuvir]: the “Activity In Vitro” value in data set [1] is given as “No (Potency EC50 or IC50 < 10 µM)”. For the same compound, the “Activity Ex Vivo Human Airway Epithelia (HAE)” value in data set [2] is “No”. For the same compound, in data set [3], the EC50 was greater than 50 µM.

For `OC(c1cc(C(F)(F)F)nc2c(C(F)(F)F)cccc12)C1CCCCN1` (stereo not drawn) [Mefloquine, mefloquine], in data set [1], the “Activity In Vitro” value is listed as “No (Potency EC50 or IC50 < 10 µM)”. Besides, in data set [2], the “Activity Ex Vivo Human Airway Epithelia (HAE)” value was “No”. Further, the EC50 in data set [3] was greater than 50 µM.

As to `COc1ccc2cc1Oc1ccc(cc1)C[C@H]1c3c(cc4c(c3Oc3cc5c(cc3OC)CCN(C)[C@@H]5C2)OCO4)CCN1C` [Cepharanthine, cepharanthine], the “Activity In Vitro” value in data set [1] is listed as “No (Potency EC50 or IC50 < 10 µM)”. The “Activity Ex Vivo Human Airway Epithelia (HAE)” value in data set [2] is reported as “No”. The EC50 in data set [3] is greater than 50 µM.

Consider `CC(C)C(=O)OC[C@H]1O[C@@H](n2ccc(NO)nc2=O)[C@H](O)[C@@H]1O` [Molnupiravir, molnupiravir], for which the “Activity In Vitro” value in data set [1] is listed as “Yes (Potency EC50 or IC50 < 10 µM)”. Besides, in data set [2], the “Activity Ex Vivo Human Airway Epithelia (HAE)” value is on record as “Yes” and the “Concentration showing activity / complete inhibition of viral replication in HAE” value is 10 µM. In addition, the EC50 in data set [3] was 3.6 µM.

Regarding `CC(=O)CCCCn1c(=O)c2c(ncn2C)n(C)c1=O` [Pentoxyfilline, pentoxyfilline], the “Activity In Vitro” value in data set [1] was “No (Potency EC50 or IC50 < 10 µM)”. In addition, the “Activity Ex Vivo Human Airway Epithelia (HAE)” value in data set [2] is recorded as “No”. Moreover, the EC50 in data set [3] was greater than 50 µM.

Turning to `Nc1c(Br)cc(Br)cc1CN[C@H]1CC[C@H](O)CC1` [Ambroxol, ambroxol], in data set [1], the “Activity In Vitro” value is “No (Potency EC50 or IC50 < 10 µM)”. For the same compound, the “Activity Ex Vivo Human Airway Epithelia (HAE)” value in data set [2] is given as “No”. Further, the EC50 in data set [3] was greater than 50 µM.

bemnifosbuvir: in data set [1], the “Activity In Vitro” value was “No (Potency EC50 or IC50 < 10 µM)” and the EC50 was greater than 50 µM. Besides, the “Activity Ex Vivo Human Airway Epithelia (HAE)” value in data set [2] is “No”.
